Source: patent US10478431B2, “Methods for treating a cytomegalovirus infection” (priority 2014, dated 2019)
Structures can show the parent of a compound that is named as a salt.

Key:
[1] = test system: IE2 negative feedback (MIEP-IE2-IRES-GFP construct, LM2ig); assay: IE2 negative feedback reporter: cells harboring LM2ig (MIEP-IE2-IRES-GFP), GFP by flow cytometry; format: cell-based, human CMV (hCMV)
Method: (§1) MRCS fibroblasts and life-extended human foreskin fibroblasts (HFFs) (Bresnahan and Shenk, 2000) were maintained in Dulbecco's Modified Eagle's Medium (DMEM) supplemented with 10% fetal bovine serum (FBS) and 50 U/ml penicillin-streptomycin at 37° C. and 5% CO2 in a humidified incubator. ARPE-19 cells were maintained in a 1:1 mixture of DMEM/F-12 (Mediatech Inc.) with 10% FBS (HyClone) and 50 U/ml Penicillin-Streptomycin (Mediatech Inc.). Cells were treated with a final concentration of 1 mM valproic acid (VPA) (Calbiochem™), resuspended in dimethylsulfoxide, for approximately 24 hours before imaging. Cells were treated with a final concentration of 400 nM TSA (Sigma-Aldrich) resuspended in dimethylsulfoxide, for 20-24 hours, a final concentration of 10 ng/mL TNF-α (Sigma-Aldrich) resuspended in phosphate-buffered saline (PBS), or a final concentration of 1 mM VPA (Calbiochem) for approximately 24 hours before imaging.
(§2) Standard lentiviral cloning was used to create minimal major immediate early (MIE) circuits (Dull et al., 1998). The minimal MIEP-IE2-GFP and MIEP-GFP circuits are driven by a full-length ˜2.5 kb MIE promoter-enhancer (MIEP) that spans the sequence from the MIEP modulator at the 5′ edge to the junction of immediate early (IE) exons 1 and 2. The MIEP was polymerase chain reaction (PCR)-cloned from AD169 into pLEIGW in place of the EF1a promoter. This full-length MIEP drives an IE2-IRES-GFP or mCherry-IRES-GFP cassette. IE2 was cloned from pRSV-IE86 (a gift from Jay Nelson). ARPE-19 cells were infected and fluorescence-activated cell sorter (FACS) sorted for green fluorescent protein (GFP) fluorescence to create stably expressing cell lines. Cells were treated with Trichostatin-A (TSA) for 17 hours, and GFP expression was quantified by flow cytometry. Live cells were gated by forward-versus-side scattering on a FacsCalibur™ cytometer (BD Biosciences) and mean fluorescence intensity recorded. At least 20,000 live cells were recorded for each experiment and data was analyzed in FlowJo™ (Treestar Inc.).
See WO 2014/127148 for descriptions of MIEP-IE2-reporter constructs. For example, LM2ig construct is depicted in FIG. 7 of WO 2014/127148.

[2] = test system: clinically derived CMV isolate TB40E; assay: HCMV TB40E virus replication and spread on epithelial cell monolayers; format: cell-based, human CMV (hCMV); details: FIG. 22
Description: (Cells show more CPE with drug treatment and appear more distorted and larger.) Infection at MOI of 1 on confluent epithelial cell monolayers. Images on day 5, post infection.

[3] = test system: ARPE-19 cells stably transduced with LM2ig; assay: Viability of ARPE-19 cells stably transduced with LM2ig; format: cell-based; details: FIG. 1, FIG. 2
Method: as §1, §2

Rhesus CMV (RhCMV) = assay: Rhesus CMV viral replication kinetics on rhesus fibroblast cells; format: cell-based, rhesus monkey
Method: Murine CMV (MCMV) replication kinetics were performed in BALB/c mice using the Smith strain of MCMV as previously described (Orr et al., 2010) and on NIH 3T3 cells using same methods as for HCMV. Rhesus CMV (RhCMV) viral replication kinetics were performed on rhesus fibroblast cells as described in (Lilja et al., 2008).

[4] = test system: IE2 negative feedback (LM2ig "low" cells); assay: LM2ig "low" drug screen (4 day induction, high throughput flow cytometry); format: cell-based, human CMV (hCMV); details: induction period of 4 days, FIG. 9
Method: LM2ig “low” cells (˜0% GFP positive before induction) were treated with agents in duplicate for an induction period of 4 days. During this induction period, the cell culture medium was not changed; images were taken every day for 4 days. On the final day, high throughput flow cytometry was carried out on FACS IntelliCyt. Agents tested were: Hoechst 33258, Hoechst 33342, VPA, TSA, TNF-α, hexamethylene bisacetamide (HMBA), phorbol myristate acetate (PMA), neotroposin, distamycin, DAPI, gemcitabine, prednisolone, suberanilohydroxamic acid (SAHA), (2E)-N-hydroxy-3-[4-({[2-(2-methyl-1H-indol-3-yl)ethyl]amino}methyl)phenyl]acrylamide (panobinostat), thapsigargin, JQ1, prostratin, dimizane acetate, pentamidine, or bendamustine.

[5] = test system: DNA CRS target with purified IE2 protein; assay: Gel shift assay (EMSA) of IE2-CRS; format: binding; details: various amounts of BB33258; FIG. 20
Method: IE2-MBP expressed in BL21 cells was purified using amylose column, and EMSA was performed for IE2-crs interaction as described in Macias, M. P., Stinski, M. F., 1993. PNAS. 90, 707-711.

IE2 = assay: Quantitative Western blot of IE2; format: cell-based, human CMV (hCMV); details: with increasing Hoechst 33258 exposure
Method: Cell monolayers were rinsed in PBS buffer, and cells from each well were scraped into 50 μl A of RIPA buffer and stored at −80° C. For analysis, samples were thawed and quantitated for total protein content using a modified Lowry assay (BioRad DC protein assay kit). Equivalent amounts of total protein (10 μg) were added to appropriate volumes of 4× sample loading buffer (50 mM Tris-HCl pH 6.8, 2% sodium docecyl sulfate (SDS), 10% glycerol, 1% beta-mercaptoethanol, 12.5 mM EDTA, and 0.02% bromophenol blue) and heated at 95° C. for 5 minutes. Protein samples were loaded and separated on precast SDS polyacrylamide gel electrophoresis (PAGE) 10% or 7.5% bisacrylamide gels (BioRad). Protein transfer and blot preparation were handled as previously described (Bolovan-Fritts et al., 2004). For detection of protein bands, primary mouse monoclonal antibody against a shared epitope present in IE1 and IE2 at 1:100 (MAB810, Millipore). Beta tubulin was used as a normalization marker, and detected by a primary rabbit anti-beta tubulin antibody (926-42211, LiCor) used at a dilution of 1:2000. The secondary antibody for IE2 detection used was a donkey anti-mouse conjugated to IR dye 800CW (926-32212, LiCor) at a dilution of 1:20,000. […] Blots were scanned using a LiCor Odyssey Infrared Imaging system and software analysis for quantitation.

Structure (SMILES): CN1CCN(c2ccc3[nH]c(-c4ccc5[nH]c(-c6ccc(O)cc6)nc5c4)nc3c2)CC1 [Hoechst 33258, 2′-(4-hydroxyphenyl)-5-(4-methyl-1-piperazinyl)-2,5′-bi-1H-benzimidazole trihydrochloride hydrate]
- breaking of the IE2 negative feedback circuit ([1]; 24-28 hour exposure): breaks the IE2 negative feedback circuit
- quiescent MIEP-driven expression in a reporter cell line ([1]; ARPE-19 cells harboring LM2ig, 20 μM Hoechst 33258, FACS, FIG. 4 upper panel): activated quiescent MIEP-driven expression
- number of GFP-positive cells ([1]; ARPE-19 cells harboring LM2ig, Hoechst 33258 with or without VPA, FIG. 7): induced an increase
- mean fluorescence intensity (MFI) ([1]; ARPE-19 cells harboring LM2ig, Hoechst 33258 with or without VPA, FIG. 8): increased MFI
- production of IE2, as measured by GFP expression (GFP mean fluorescence intensity; GFP-MFI) ([1]; ARPE-19 cells stably transduced with LM2ig, FIG. 1, FIG. 2): increased production of IE2
- reactivation of the LM2ig minimal circuit ([1]; Hoechst 33258: after 24 hours): strongly reactivates
- breaking of the circuit and reactivation of the promoter from an off (silenced) state ([1]; long-term (e.g., 8-10 days) exposure): breaks the circuit and reactivates the promoter
- virus fitness (TB40E replication levels) ([2]; MOI of 1, confluent epithelial cell monolayers): virus fitness loss
- cell to cell spread (IE2-YFP positive cells) ([2]; MOI of 1, images on day 5 post infection): inhibits cell to cell spread
- cell viability / cytotoxicity [3]: reduced cell viability
- cytopathic effect (CPE) and plaque formation (Rhesus CMV (RhCMV); DIC imaging, rhCMV-infected cells): reduced cytopathic effect (CPE) and plaque formation
- rhCMV replication (Rhesus CMV (RhCMV); FIG. 11): inhibited rhCMV replication to an extent similar to Hoechst 33258 inhibition of hCMV replication
- inhibitory effect on rhCMV replication at various MOI and after multiple rounds of replication (Rhesus CMV (RhCMV); FIG. 12): remains both at high MOI and also after multiple rounds of replication
- breaking of the IE2 negative feedback (geometric mean of GFP) [4]: specifically break the IE2 negative feedback
- binding to the CRS sequence (EMSA) [5]: binding
- IE2 levels (quantitative Western blot) (IE2): increase
